From patent US10004732B2 (Novartis AG, priority 2014, dated 2018)

Experiments:
PI 3-kinase gamma [1] = target: T1, PI 3-kinase gamma (Homo sapiens, UniProt P48736); test: Cellular U937 AKT assay K1 (MSD); format: cell-based; details: U937 cells, K1 format; read-out: Assay K1 PI3Kγ IC50
PI 3-kinase delta [2] = target: T2, PI 3-kinase delta (Homo sapiens, UniProt O00329); test: Cellular assay J1, p-Akt (S473) in Rat-1 cells, Surefire format; format: cell-based; details: non-asterisked data: version J1 (Surefire format), Rat-1 cells; read-out: Assay J PI3Kδ IC50
PI 3-kinase gamma [3] = target: T1, PI 3-kinase gamma; test: TR-FRET Adapta assay, assay E; format: biochemical; details: read-out: Assay E PI3Kγ IC50
PI 3-kinase alpha [4] = target: T3, PI 3-kinase alpha (Homo sapiens, UniProt P42336); test: Cellular assay H1, p-Akt (S473) in Rat-1 cells, Surefire format; format: cell-based; details: non-asterisked data: version H1 (Surefire format), Rat-1 cells; read-out: Assay H PI3Kα IC50
Target sequence in this assay (P42336 whole entry): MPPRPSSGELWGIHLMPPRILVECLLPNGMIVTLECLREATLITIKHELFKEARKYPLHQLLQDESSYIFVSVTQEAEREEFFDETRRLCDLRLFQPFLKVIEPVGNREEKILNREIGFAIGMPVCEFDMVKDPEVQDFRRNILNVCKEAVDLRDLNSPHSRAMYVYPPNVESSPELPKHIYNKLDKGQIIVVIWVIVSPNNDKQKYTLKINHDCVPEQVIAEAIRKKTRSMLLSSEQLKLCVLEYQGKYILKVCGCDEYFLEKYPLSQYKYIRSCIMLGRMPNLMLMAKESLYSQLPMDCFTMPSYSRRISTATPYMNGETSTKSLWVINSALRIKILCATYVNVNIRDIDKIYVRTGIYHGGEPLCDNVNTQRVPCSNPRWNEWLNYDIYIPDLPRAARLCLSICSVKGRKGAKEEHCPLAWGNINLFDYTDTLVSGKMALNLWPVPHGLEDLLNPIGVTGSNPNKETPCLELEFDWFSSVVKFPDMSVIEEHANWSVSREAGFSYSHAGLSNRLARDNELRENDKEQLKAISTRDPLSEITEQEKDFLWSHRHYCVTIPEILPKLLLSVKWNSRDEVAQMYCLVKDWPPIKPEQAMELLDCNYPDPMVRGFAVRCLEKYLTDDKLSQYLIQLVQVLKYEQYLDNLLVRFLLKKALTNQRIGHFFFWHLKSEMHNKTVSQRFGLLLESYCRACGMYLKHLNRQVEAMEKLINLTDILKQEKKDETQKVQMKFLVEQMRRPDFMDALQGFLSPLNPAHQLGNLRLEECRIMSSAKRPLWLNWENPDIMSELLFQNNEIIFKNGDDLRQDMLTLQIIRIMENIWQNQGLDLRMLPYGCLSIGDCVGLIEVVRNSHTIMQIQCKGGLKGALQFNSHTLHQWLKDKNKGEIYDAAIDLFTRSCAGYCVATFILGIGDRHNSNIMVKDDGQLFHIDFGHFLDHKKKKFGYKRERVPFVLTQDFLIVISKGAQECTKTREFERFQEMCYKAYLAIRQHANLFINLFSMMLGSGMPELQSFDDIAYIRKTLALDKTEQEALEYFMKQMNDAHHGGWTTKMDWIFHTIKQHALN
Target sequence in this assay (Q63787 whole entry partner): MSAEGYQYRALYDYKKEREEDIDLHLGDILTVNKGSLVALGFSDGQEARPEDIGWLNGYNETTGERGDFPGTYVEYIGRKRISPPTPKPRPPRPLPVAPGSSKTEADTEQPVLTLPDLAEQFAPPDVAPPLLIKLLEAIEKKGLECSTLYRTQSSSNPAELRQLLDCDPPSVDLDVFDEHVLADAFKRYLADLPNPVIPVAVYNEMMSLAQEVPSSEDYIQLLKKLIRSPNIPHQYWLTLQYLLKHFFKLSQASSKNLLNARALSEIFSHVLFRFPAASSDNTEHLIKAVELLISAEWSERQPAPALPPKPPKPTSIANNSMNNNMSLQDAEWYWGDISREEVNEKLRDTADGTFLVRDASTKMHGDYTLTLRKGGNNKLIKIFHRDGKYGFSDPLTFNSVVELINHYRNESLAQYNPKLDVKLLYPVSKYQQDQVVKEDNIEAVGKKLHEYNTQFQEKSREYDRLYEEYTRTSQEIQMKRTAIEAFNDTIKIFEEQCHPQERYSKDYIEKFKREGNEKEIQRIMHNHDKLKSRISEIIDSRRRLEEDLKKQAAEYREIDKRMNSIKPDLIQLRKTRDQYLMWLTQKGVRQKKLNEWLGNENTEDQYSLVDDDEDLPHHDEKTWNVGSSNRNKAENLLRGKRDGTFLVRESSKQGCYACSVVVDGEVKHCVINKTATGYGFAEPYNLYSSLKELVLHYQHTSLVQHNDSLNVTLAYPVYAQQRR

PI 3-kinase beta [5] = target: T4, PI 3-kinase beta (Homo sapiens, UniProt P42338); test: Kinase Glo Luminescent Kinase Assay (Kglo), assay B; format: biochemical; details: read-out: Assay B PI3Kβ IC50
Target sequence in this assay (P42338 whole entry): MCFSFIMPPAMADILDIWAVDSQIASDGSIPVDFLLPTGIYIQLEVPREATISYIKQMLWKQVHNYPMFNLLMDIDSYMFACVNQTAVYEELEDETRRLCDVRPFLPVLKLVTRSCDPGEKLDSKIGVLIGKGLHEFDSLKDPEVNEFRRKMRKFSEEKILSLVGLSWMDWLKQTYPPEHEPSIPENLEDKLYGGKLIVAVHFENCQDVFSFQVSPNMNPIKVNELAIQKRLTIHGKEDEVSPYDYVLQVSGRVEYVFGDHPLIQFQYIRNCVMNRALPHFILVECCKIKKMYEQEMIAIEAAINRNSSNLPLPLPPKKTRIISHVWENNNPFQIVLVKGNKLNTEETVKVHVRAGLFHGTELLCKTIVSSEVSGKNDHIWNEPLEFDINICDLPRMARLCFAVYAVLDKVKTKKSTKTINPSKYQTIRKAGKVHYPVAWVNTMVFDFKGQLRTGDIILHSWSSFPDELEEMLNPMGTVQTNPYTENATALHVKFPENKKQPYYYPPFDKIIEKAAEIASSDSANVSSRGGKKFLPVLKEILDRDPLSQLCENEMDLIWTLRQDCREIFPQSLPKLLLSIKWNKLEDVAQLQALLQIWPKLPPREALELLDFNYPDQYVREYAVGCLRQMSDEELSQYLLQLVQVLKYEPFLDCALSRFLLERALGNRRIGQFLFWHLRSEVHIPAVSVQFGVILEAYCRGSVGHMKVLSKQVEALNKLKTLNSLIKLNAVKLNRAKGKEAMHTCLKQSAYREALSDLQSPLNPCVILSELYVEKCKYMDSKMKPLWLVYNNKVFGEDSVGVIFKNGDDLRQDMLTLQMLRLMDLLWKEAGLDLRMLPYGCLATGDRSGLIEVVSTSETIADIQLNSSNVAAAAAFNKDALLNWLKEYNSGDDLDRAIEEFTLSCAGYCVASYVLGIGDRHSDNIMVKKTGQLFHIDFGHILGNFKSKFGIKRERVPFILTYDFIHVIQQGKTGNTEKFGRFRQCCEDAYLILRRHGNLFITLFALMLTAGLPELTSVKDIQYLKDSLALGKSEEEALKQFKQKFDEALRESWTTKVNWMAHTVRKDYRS
Target sequence in this assay (P27986 461-568 partner): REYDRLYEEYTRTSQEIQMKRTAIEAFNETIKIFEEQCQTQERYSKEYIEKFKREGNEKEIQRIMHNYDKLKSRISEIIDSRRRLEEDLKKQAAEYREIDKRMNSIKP

Vps34 = Vps34 (Homo sapiens, UniProt Q8NEB9); test: Kinase Glo Luminescent Kinase Assay (Kglo), assay C; format: biochemical; details: read-out: Assay C VPS34 IC50
PI 3-kinase beta [6] = target: T4, PI 3-kinase beta; test: Cellular assay I1, p-Akt (S473) in Rat-1 cells, Surefire format; format: cell-based; details: non-asterisked data: version I1 (Surefire format), Rat-1 cells; read-out: Assay I PI3Kβ IC50
Target sequence in this assay (P42338 whole entry): as the sequence (P42338 whole entry) above
Target sequence in this assay (Q63787 whole entry partner): as the sequence (Q63787 whole entry partner) above

PI 4-kinase beta = PI 4-kinase beta (Homo sapiens, UniProt Q9UBF8); test: Kinase Glo Luminescent Kinase Assay (Kglo), assay D; format: biochemical; details: read-out: Assay D PI4Kβ IC50
Description: Kinase Glo Luminescent Kinase Assay (Kglo) for Pb 3-Kinase Alpha (A), Pb 3-Kinase Beta (B), Vps34 (C), Pb 4-Kinase Beta (D)
The Kinase Glo Luminescent Kinase Assay (Promega, Madison/Wis., USA) is a homogeneous HTS method of measuring kinase activity by quantifying the amount of ATP remaining in solution following a kinase reaction.
L-α-phosphatidylinositol (PI), provided as 10 mg/ml solution in methanol, was transferred into a glass tube and dried under a nitrogen beam. It was then resuspended in 3% OctylGlucoside (1-0-n-octyl-beta-D-glucopyranoside) by vortexing and stored at 4° C. 5 μL of a mix of PI/OctylGlucoside with the PI 3-kinase alpha and PI 3-kinase beta subtypes, or Vps34 or PI 4-kinase beta were added. Kinase reactions were started by the addition of 5 μl of an ATP-mix containing in a final volume 10 μL 10 mM TRIS-HCl pH 7.5, 3 mM MgCl2, 50 mM NaCl, 0.05% CHAPS, 1 mM DTT and 1 μM ATP at room temperature.
All fits were performed with the program XLfit4 (ID Business Solutions, Guildford, UK).

PI 3-kinase delta [7] = target: T2, PI 3-kinase delta; test: TR-FRET Adapta assay, assay F; details: read-out: Assay F PI3Kδ IC50
Description: TR-FRET Adapta Assay for PI 3-Kinase Gamma (E), PI 3-Kinase Delta (F)
The TR-FRET Adapta™ Universal Kinase Assay Kit was purchased from Invitrogen Corporation (Carlsbad/CA, USA) (Cat. No. PV5099).
PIK3CD substrate phosphatidylinositol (PI) was obtained from Invitrogen (vesicules consisting of 2 mM phosphatidylinositol (PI) in 50 mM HEPES pH7.5; Cat. No. PV5371). PIK3CG substrate phosphatidylinositol-4,5-bisphosphate (PIP(4,5)2 was obtained from Invitrogen (PIP2:PS large unilamellar vesicules consisting of 1 mM PIP2: 19 mM PS in 50 mM HEPES pH7.5, 3 mM MgCl2, 1 mM EGTA; Cat. No. PV5100).
Time-Resolved Fluorescence Resonance Energy Transfer (TR-FRET) is a technology based on energy transfer between two adjacent dyes, from an excited electron in one dye (the donor) to an electron of an adjacent dye (the acceptor) through resonance, then released as a photon. This energy transfer is detected by an increase in the fluorescence emission of the acceptor, and a decrease in the fluorescence emission of the donor. TR-FRET assays for protein kinases use a long-lifetime lanthanide Terbium or Europium chelates as the donor species which overcome interference from compound autofluorescence or light scatter from precipitated compounds, by introducing a delay after excitation by a flashlamp excitation source. Results are often expressed as a ratio of the intensities of the acceptor and donor fluorophores. The ratiometric nature of such a value corrects for differences in assay volumes between wells, as well as corrects for quenching effects due to colored compounds. The Adapta™ assay can be divided into two phases: a kinase reaction phase and an ADP detection phase. In the kinase reaction phase, all kinase reaction components are added to the well and the reaction is allowed to incubate for a set period of time specific for each kinase. […] In the presence of an inhibitor, the amount of ADP formed by the kinase reaction is reduced, and the resulting intact antibody-tracer interaction maintains a high TR-FRET signal.
50 nL of compound dilutions were dispensed onto white 384-well small volume polystyrene plate. Then 5 μL of either PI 3-kinase gamma or PI 3-kinase delta and lipid substrate (PI or PIP2:PS) followed by 5 μL of ATP (final assay volume 10 μL) are incubated at RT. The standard reaction buffer for the Adapta™ TR-FRET assay contained 10 mM Tris-HCl pH 7.5, 3 mM MgCl2, 50 mM NaCl, 1 mM DTT, 0.05% CHAPS 3-[(3-cholamidopropyl)dimethylammonio]-1-propanesulfonate).
Data are analyzed using Excel fit software or Graphpad Prism. IC50 values were derived by fitting a sigmoidal dose-response curve to a plot of assay readout over inhibitor concentration. All fits were performed with the program XLfit4 (ID Business Solutions, Guildford, UK). […] All fits were performed with the program XLfit4 (ID Business Solutions, Guildford, UK).

[8] = Microsomal clearance assay (M); details: intrinsic clearance in rat liver microsomes
Description: The experiments were performed in 96-well glass plates at 37° C. on an automated Tecan EVO platform. Test compounds at a concentration of 10 mM in pure DMSO were diluted 1:1000 in water to 10 μM. […] Reactions were initiated by the addition of 150 μL of a cofactor solution containing 2 mM NADPH.

PI 3-kinase alpha [9] = target: T3, PI 3-kinase alpha; test: Kinase Glo Luminescent Kinase Assay (Kglo), assay A; format: biochemical; details: read-out: Assay A PI3Kα IC50
Target sequence in this assay (P42336 whole entry): as the sequence (P42336 whole entry) above

mTOR = mTOR (Homo sapiens, UniProt P42345); test: Lanthascreen kinase binding assay, assay G; details: read-out: Assay G mTOR IC50
Description: Lanthascreen™ Kinase Binding Assay for mTOR (G)
Binding of an inhibitor to the kinase competes for binding with the tracer, resulting in a loss of FRET.
50 nL of compound dilutions were dispensed onto white 384-well small volume polystyrene plate.

[10] = tested on: IL-8-induced neutrophil shape change in human whole blood; test: Whole blood neutrophil shape change assay (L); format: cell-based; details: Homo sapiens, Neutrophil, IL-8, human whole blood, read-out: Assay L WBSC IC50

T1 sequence (P48736 whole entry): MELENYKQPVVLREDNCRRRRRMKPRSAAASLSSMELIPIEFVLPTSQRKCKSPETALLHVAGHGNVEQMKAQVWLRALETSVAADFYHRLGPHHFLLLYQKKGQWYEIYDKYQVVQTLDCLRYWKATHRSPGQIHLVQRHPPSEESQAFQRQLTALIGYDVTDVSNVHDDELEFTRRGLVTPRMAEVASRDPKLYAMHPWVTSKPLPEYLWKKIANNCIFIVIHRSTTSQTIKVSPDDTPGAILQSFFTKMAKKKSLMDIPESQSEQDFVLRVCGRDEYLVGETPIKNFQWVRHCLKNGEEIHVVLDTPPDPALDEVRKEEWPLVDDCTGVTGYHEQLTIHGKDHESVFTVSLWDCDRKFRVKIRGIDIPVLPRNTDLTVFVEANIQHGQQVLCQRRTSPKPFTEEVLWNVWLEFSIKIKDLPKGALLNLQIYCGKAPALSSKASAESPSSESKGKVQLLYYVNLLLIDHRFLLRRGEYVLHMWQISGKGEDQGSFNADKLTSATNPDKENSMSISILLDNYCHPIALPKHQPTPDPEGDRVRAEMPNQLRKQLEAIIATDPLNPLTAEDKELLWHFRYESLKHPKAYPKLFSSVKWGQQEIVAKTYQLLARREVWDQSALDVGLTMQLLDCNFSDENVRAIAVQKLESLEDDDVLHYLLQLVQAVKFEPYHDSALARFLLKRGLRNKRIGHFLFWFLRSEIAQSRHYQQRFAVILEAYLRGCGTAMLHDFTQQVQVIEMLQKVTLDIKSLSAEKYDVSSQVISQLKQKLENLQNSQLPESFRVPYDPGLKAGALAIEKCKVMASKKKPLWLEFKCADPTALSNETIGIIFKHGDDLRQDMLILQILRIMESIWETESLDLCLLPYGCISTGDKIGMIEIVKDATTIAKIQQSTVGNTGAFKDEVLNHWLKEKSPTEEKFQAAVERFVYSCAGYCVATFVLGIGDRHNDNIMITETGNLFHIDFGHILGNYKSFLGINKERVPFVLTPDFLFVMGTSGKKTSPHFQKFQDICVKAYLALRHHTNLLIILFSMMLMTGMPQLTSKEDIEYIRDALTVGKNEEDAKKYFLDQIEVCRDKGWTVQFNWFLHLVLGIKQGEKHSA
Chain of PI 4-kinase beta (Q9UBF8 whole entry): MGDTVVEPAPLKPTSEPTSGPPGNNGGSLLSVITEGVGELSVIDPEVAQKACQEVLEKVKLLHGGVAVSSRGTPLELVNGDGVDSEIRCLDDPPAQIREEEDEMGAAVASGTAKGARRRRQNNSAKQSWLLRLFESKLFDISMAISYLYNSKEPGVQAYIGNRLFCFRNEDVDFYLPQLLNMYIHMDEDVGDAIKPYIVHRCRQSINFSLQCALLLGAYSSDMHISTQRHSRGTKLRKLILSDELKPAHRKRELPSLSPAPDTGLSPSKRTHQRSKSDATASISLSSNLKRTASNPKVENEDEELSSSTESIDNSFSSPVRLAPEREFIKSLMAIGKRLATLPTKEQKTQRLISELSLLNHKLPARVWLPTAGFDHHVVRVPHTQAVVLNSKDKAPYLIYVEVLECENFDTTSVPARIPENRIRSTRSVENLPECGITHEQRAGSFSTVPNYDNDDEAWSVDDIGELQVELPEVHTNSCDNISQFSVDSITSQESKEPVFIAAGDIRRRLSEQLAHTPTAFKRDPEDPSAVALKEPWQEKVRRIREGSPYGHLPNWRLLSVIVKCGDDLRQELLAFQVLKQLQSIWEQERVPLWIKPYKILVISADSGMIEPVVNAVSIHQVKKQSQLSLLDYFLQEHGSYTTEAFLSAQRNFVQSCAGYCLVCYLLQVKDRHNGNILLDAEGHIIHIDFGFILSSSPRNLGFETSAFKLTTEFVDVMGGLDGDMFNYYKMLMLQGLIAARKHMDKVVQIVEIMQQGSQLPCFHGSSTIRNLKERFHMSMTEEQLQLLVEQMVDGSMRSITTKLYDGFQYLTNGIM

| Structure (SMILES) | IC50 (PI 3-kinase gamma [1]) [µM] | IC50 (PI 3-kinase delta [2]) [µM] | IC50 (PI 3-kinase gamma [3]) [µM] | IC50 (PI 3-kinase alpha [4]) [µM] | IC50 (PI 3-kinase beta [5]) [µM] | IC50 (Vps34) [µM] | IC50 (PI 3-kinase beta [6]) [µM] | IC50 (PI 4-kinase beta) [µM] | IC50 (PI 3-kinase delta [7]) [µM] | Assay M RLM CI(int) [8] [µL/min/mg] | IC50 (PI 3-kinase alpha [9]) [µM] | IC50 (mTOR) [µM] | IC50 [10] [µM] |
| --- | --- | --- | --- | --- | --- | --- | --- | --- | --- | --- | --- | --- | --- |
| CCc1nnc(-c2nc(-c3cc(S(=O)(=O)N[C@H]4CC[C@H](O)CC4)ccc3C)cnc2N)o1 [Example 138, Trans-3-(5-Amino-6-(5-ethyl-1,3,4-oxadiazol-2-yl)pyrazin-2-yl)-N-((1r,4r)-4-hydroxycyclohexyl)-4-methylbenzenesulfonamide] | 0.26 | 3.55 | 0.004 | 8.8 | > 9.1 | > 9.1 | > 10 | 8.54 | 0.86 | 31 | 2.7 | > 9.1 | 4.83 |
| Cc1cn(-c2nc(-c3cc(S(=O)(=O)N[C@H]4CC[C@H](O)CC4)ccc3C)cnc2N)cn1 [Example 56, Trans-3-(5-Amino-6-(4-methyl-1H-imidazol-1-yl)pyrazin-2-yl)-N-(-4-hydroxycyclohexyl)-4-methylbenzenesulfonamide] | 0.129 | 3.12 | 0.019 | 4.4 | 1.75 | 3.52 | 5.88 | 7.27 | 0.08 | 24 | 0.29 | 2.38 | 0.211 |
| Cc1cc(F)c(S(=O)(=O)NCCC(C)(C)O)cc1-c1cnc(N)c(-c2cnn(C)c2)n1 [Example 115, 5-(5-Amino-6-(1-methyl-1H-pyrazol-4-yl)pyrazin-2-yl)-2-fluoro-N-(3-hydroxy-3-methylbutyl)-4-methylbenzenesulfonamide] | 0.117 | 2.21 | 0.039 | 2.98 | 2.35 | 8.99 | 3.53 | 5.64 | 0.48 | 38 | 0.32 | 8.64 | 1.11 |
| Cc1ccc(S(=O)(=O)NCCC(C)(C)O)cc1-c1cnc(N)c(-n2cncn2)n1 [Example 64, 3-(5-Amino-6-(1H-1,2,4-triazol-1-yl)pyrazin-2-yl)-N-(3-hydroxy-3-methylbutyl)-4-methylbenzenesulfonamide] | 0.189 | 1.19 | 0.046 | 1.24 | 3.85 | 8.49 | 4.37 | 6.61 | 0.25 | 61 | 0.37 | > 9.1 | 0.543 |
| Cc1ccc(S(=O)(=O)NCC2(C)COC2)cc1-c1cnc(N)c(-c2cn(C)nc2C)n1 [Example 17, 3-[5-Amino-6-(1,3-dimethyl-1H-pyrazol-4-yl)-pyrazin-2-yl]-4-methyl-N-(3-methyl-oxetan-3-ylmethyl)-benzenesulfonamide] | 0.051 | 1.92 | 0.01 | 2.8 | 0.9 | > 10 | 8.25 | 8.3 | 0.59 | 34 | 0.22 | 6.1 | 0.166 |
| Cc1ccc(S(=O)(=O)NCC(C)(C)CO)cc1-c1cnc(N)c(-n2cncn2)n1 [Example 73, 3-(5-Amino-6-(1H-1,2,4-triazol-1-yl)pyrazin-2-yl)-N-(3-hydroxy-2,2-dimethylpropyl)-4-methylbenzenesulfonamide] | 0.177 | 2 | 0.015 | 2.26 | 1.83 | > 9.1 | 5.38 | > 9.1 | 0.39 | 64 | 0.35 | > 9.1 | 0.803 |
| Cc1ccc(S(=O)(=O)NCC2(CO)COC2)cc1-c1cnc(N)c(-n2cncn2)n1 [Example 35, 3-(5-Amino-6-[1,2,4]triazol-1-yl-pyrazin-2-yl)-N-(3-hydroxymethyl-oxetan-3-ylmethyl)-4-methyl-benzenesulfonamide] | 0.418 | > 10 | 0.025 | > 10 | 1.9 | > 10 | > 10 | 3.7 | 0.99 | 25 | 0.63 | 5.6 | 0.669 |
| Cc1ccc(S(=O)(=O)N[C@H]2CC[C@H](O)CC2)cc1-c1cnc(N)c(-n2cncn2)n1 [Example 15, Trans-3-(5-Amino-6-(1H-1,2,4-triazol-1-yl)pyrazin-2-yl)-N-(4-hydroxycyclohexyl)-4-methylbenzenesulfonamide] | 0.061 | 1.45 | 0.018 | 1.93 | 1.93 | > 9.1 | 2.01 | 5.68 | 0.15 | 24 | 0.16 | > 9.1 | 0.166 |

Other lines, results leading:

| IC50 (PI 3-kinase gamma [1]) [µM] | IC50 (PI 3-kinase delta [2]) [µM] | IC50 (PI 3-kinase gamma [3]) [µM] | IC50 (PI 3-kinase alpha [4]) [µM] | IC50 (PI 3-kinase beta [5]) [µM] | IC50 (Vps34) [µM] | IC50 (PI 3-kinase beta [6]) [µM] | IC50 (PI 4-kinase beta) [µM] | IC50 (PI 3-kinase delta [7]) [µM] | Assay M RLM CI(int) [8] [µL/min/mg] | IC50 (PI 3-kinase alpha [9]) [µM] | IC50 (mTOR) [µM] | IC50 [10] [µM] | Structure (SMILES) |
| --- | --- | --- | --- | --- | --- | --- | --- | --- | --- | --- | --- | --- | --- |
| 0.052 | 1.1 | 0.009 | 0.97 | 0.34 | > 10 | 6.28 | 3.1 | 0.33 | >924 | 0.14 | 3.6 | 1.77 | Cc1ccc(S(=O)(=O)NCC2(CO)CCCCC2)cc1-c1cnc(N)c(-n2cncn2)n1 [Example 127.52] |
| 0.333 | 2.38 | 0.05 | 2.74 | > 9.1 | > 9.1 | 4.07 | > 9.1 | 0.25 | 101 | 0.45 | > 9.1 | 2.18 | COc1ccncc1-c1nc(-c2cc(S(=O)(=O)NCCC(C)(C)O)ccc2C)cnc1N [Example 119.2] |
| 0.041 | 1.27 | 0.013 | 2.27 | 3.51 | > 9.1 | 7.42 | 4.25 | 0.22 | 49 | 0.18 | 6.59 | 1.49 | CCn1cc(-c2nc(-c3cc(S(=O)(=O)NCCC(C)(C)O)ccc3C)cnc2N)cn1 [Example 119.34] |
| 0.093 | 1.14 | 0.024 | 3.02 | 3 | > 9.1 | 2.87 | 5.3 | 0.04 | 78 | 0.18 | > 9.1 | 0.581 | Cc1ccc(S(=O)(=O)NCCC(C)(C)O)cc1-c1cnc(N)c(-c2cnn(Cc3ccccn3)c2)n1 [Example 119.37] |
